PubChem BioAssay (NCI)
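How tested: cells in 96-well plates exposed to compound for 48 hours at five concentrations. Here, GI50 denotes the concentration required for 50% inhibition of growth. TGI marks complete inhibition of growth.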

What was measured:
Assay in all cases: inhibition of tumour cell growth, NCI panel, 48 h
CCRF-CEM leukemia = system: CCRF-CEM leukemia
MDA-MB-231 breast = system: MDA-MB-231 breast
NCI-H460 lung = system: NCI-H460 lung
OVCAR-3 ovarian = system: OVCAR-3 ovarian
OVCAR-8 ovarian = system: OVCAR-8 ovarian
RXF 393 renal = system: RXF 393 renal
SF-268 CNS = system: SF-268 CNS
SK-MEL-28 melanoma = system: SK-MEL-28 melanoma
UACC-62 melanoma = system: UACC-62 melanoma
MDA-N = system: MDA-N

Row | SMILES | TGI (CCRF-CEM leukemia) [µM] | TGI (MDA-MB-231 breast) [µM] | TGI (NCI-H460 lung) [µM] | TGI (OVCAR-3 ovarian) [µM] | TGI (OVCAR-8 ovarian) [µM] | TGI (RXF 393 renal) [µM] | TGI (SF-268 CNS) [µM] | TGI (SK-MEL-28 melanoma) [µM] | TGI (UACC-62 melanoma) [µM] | GI50 (CCRF-CEM leukemia) [µM] | GI50 (MDA-MB-231 breast) [µM] | GI50 (OVCAR-3 ovarian) [µM] | GI50 (OVCAR-8 ovarian) [µM] | GI50 (RXF 393 renal) [µM] | GI50 (SF-268 CNS) [µM] | GI50 (SK-MEL-28 melanoma) [µM] | GI50 (UACC-62 melanoma) [µM] | TGI (MDA-N) [µM]
1 | CC1(C)CCc2c(ccc(C(=O)/C=C/c3ccc(O)cc3)c2O)O1 | 13.2 | 18.9 | 22.2 | 18.3 | 22 | 20.4 | 23.2 | 17 | 19.6 | – | – | – | – | – | – | – | – | –
2 | COc1cc2c(cc1OCCCCCN1CCN(c3ncnc4ccccc34)CC1)N=CC1CCCN1C2=O (centres undefined) | 0.0727 | 0.0604 | – | 0.0512 | > 81.9 | 0.0454 | 2.07 | 0.0569 | 0.0383 | 0.0133 | 0.0193 | 0.0223 | 0.0334 | 0.0253 | 0.0349 | 0.0264 | 0.0196 | –
3 | C=C(C)[C@H]1C2=CC(C(=O)OC)=C(C[C@H](C(=C)C)[C@@H](O)[C@@H](O)C3=C[C@H]1OC3=O)O2 | > 100 | > 100 | – | > 100 | > 100 | > 100 | > 100 | – | > 100 | – | – | – | – | – | – | – | – | > 100
4 | O=C(OCC(Cl)(Cl)Cl)N1CC[C@H](C2CCCCC2)C1 | 36.1 | 96.2 | 35.1 | 30.3 | – | 36.8 | 36.3 | – | 52.9 | – | – | – | – | – | – | – | – | > 100
5 | COc1cc(C=O)ccc1O | > 100 | > 100 | > 100 | > 100 | > 100 | – | > 100 | > 100 | – | – | – | – | – | – | – | – | – | > 100
6 | COc1cc(Nc2ccc3c(c2)CCC3)nc(OC)n1 | > 100 | > 100 | > 100 | > 100 | > 100 | – | > 100 | > 100 | > 100 | – | – | – | – | – | – | – | – | > 100
7 | CC(C)Oc1cccc(N2C(=NCc3c[nH]c4ccccc34)Nc3ccncc3S2(=O)=O)c1 | > 100 | – | 77.6 | 56.1 | > 100 | > 100 | > 100 | > 100 | 93.5 | – | – | – | – | – | – | – | – | > 100
8 | O=C(NCCCl)O/N=C/c1cccnc1 | > 100 | – | > 100 | > 100 | > 100 | > 100 | > 100 | > 100 | > 100 | – | – | – | – | > 100 | – | – | – | –
9 | C=C1C(=O)[C@@]23CC[C@@H]4[C@@]5(C)CCC[C@@]4(OC5=O)[C@@]2(C)CC[C@@H]1C3 | > 33.7 | – | 3.74 | 3.95 | 8.54 | 3.25 | 6.12 | 10.3 | 3.3 | – | – | – | – | – | – | – | – | > 100
10 | [N-]=[N+]=CC(=O)OC(CCl)CCl | – | > 100 | > 100 | > 100 | – | > 100 | > 100 | > 100 | > 100 | – | – | – | – | – | – | – | – | > 100
11 | COc1ccc2oc(=N)c(C(=O)Nc3ccccc3)cc2c1 | 37.1 | > 100 | > 100 | > 100 | 46 | 42.3 | 53.9 | > 100 | – | – | – | – | – | – | – | – | – | 48.4
12 | CSc1csc(-c2ccc(-c3ccc(-c4cc(SC)cs4)s3)s2)c1 | > 100 | > 100 | > 100 | > 100 | – | – | > 100 | > 100 | > 100 | – | – | – | – | – | – | – | – | > 100
13 | CN(C)Cc1cc(C(=O)/C=C/c2ccc([N+](=O)[O-])cc2)cc(CN(C)C)c1O | 21.4 | 28.5 | – | 20.6 | > 100 | 38.1 | 42.9 | – | 33.3 | – | – | – | – | – | – | – | – | 24.7
14 | COc1ccc(-c2nc3ccccc3c(=S)n2OC(C)=O)cc1 | > 25 | > 25 | > 25 | – | > 25 | > 25 | > 25 | > 25 | > 25 | – | – | – | – | – | – | – | – | > 25
15 | O=C(CN1C(=O)CC(c2ccccc2)(c2ccccc2)C1=O)N1CCN(CCO)CC1 | > 100 | > 100 | – | > 100 | > 100 | > 100 | > 100 | > 100 | > 100 | – | – | – | – | – | – | – | – | –
16 | Cc1cc(OP2(=O)NCc3ncccc3O2)ccc1Cl (centres undefined) | > 100 | > 100 | > 100 | > 100 | > 100 | > 100 | – | > 100 | > 100 | – | – | – | – | – | – | – | – | > 100
